Measured values as given in ChEMBL document CHEMBL5678818, “Discovery of potent SOS1 inhibitors that block RAS activation via disruption of the RAS-SOS1 interaction” (Proc Natl Acad Sci U S A, 2019).

Experiments:
[1] = system: Tyrosine-protein kinase ABL1 (Homo sapiens), P00519 [Q252H]; experiment: Inhibition of phosphorylated ABL1 Q252H mutant (unknown origin) assessed as residual activity at 1000 nM by KINOMEscan analysis relative to control
[2] = target: Calcium/calmodulin-dependent protein kinase kinase 1 (Homo sapiens) (UniProt Q8N5S9); experiment: Inhibition of CAMKK1 (unknown origin) assessed as residual activity at 1000 nM by KINOMEscan analysis relative to control
[3] = target: Macrophage colony-stimulating factor 1 receptor (Homo sapiens) (UniProt P07333); experiment: Inhibition of autoinhibited CSF1R (unknown origin) assessed as residual activity at 1000 nM by KINOMEscan analysis relative to control
[4] = target: T1, Serine/threonine-protein kinase DCLK2 (Homo sapiens) (UniProt Q8N568); experiment: Inhibition of DCAMKL2 (unknown origin) assessed as residual activity at 1000 nM by KINOMEscan analysis relative to control
T1 sequence (whole entry): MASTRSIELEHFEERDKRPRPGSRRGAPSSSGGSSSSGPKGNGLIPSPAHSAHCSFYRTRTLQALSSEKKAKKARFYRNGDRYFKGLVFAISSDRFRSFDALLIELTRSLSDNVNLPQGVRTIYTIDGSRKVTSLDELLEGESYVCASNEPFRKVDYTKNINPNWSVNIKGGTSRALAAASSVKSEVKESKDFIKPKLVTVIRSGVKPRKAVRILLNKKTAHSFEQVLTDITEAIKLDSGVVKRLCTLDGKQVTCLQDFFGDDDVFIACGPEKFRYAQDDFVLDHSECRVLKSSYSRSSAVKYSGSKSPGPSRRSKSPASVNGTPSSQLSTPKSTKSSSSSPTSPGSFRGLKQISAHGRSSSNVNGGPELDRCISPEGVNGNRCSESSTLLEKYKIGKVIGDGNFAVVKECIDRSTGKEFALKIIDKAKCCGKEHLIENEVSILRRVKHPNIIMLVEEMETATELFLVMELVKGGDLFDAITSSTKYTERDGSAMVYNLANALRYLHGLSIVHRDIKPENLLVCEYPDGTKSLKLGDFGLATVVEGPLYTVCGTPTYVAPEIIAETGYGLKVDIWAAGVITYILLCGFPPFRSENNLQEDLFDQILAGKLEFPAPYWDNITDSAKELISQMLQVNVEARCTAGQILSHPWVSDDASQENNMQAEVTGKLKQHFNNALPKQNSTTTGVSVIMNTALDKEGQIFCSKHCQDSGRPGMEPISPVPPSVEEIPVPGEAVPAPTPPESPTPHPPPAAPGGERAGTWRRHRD

[5] = target: T2, Serine/threonine-protein kinase DCLK3 (Homo sapiens) (UniProt Q9C098); experiment: Inhibition of DCAMKL3 (unknown origin) assessed as residual activity at 1000 nM by KINOMEscan analysis relative to control
T2 sequence (whole entry): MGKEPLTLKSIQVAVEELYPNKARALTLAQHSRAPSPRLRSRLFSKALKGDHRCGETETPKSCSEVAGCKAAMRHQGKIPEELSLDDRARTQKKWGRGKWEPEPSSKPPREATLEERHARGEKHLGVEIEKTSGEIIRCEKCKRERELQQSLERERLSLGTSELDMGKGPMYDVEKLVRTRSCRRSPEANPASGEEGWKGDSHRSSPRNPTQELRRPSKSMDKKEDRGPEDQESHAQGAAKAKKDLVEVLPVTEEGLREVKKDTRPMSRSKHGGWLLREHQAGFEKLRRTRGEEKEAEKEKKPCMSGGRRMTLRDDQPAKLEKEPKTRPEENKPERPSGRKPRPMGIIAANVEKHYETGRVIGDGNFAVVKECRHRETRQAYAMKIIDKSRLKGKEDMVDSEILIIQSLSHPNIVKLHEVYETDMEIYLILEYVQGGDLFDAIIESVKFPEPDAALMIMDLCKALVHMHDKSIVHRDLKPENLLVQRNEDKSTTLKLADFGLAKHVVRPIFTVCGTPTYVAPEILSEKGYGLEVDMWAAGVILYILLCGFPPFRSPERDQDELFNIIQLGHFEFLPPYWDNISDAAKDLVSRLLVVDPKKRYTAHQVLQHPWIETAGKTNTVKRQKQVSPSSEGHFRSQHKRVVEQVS

[6] = target: Mitogen-activated protein kinase 6 (Homo sapiens) (UniProt Q16659); experiment: Inhibition of ERK3 (unknown origin) assessed as residual activity at 1000 nM by KINOMEscan analysis relative to control
[7] = target: Fibroblast growth factor receptor 4 (Homo sapiens) (UniProt P22455); experiment: Inhibition of FGFR4 (unknown origin) assessed as residual activity at 1000 nM by KINOMEscan analysis relative to control
[8] = target: LIM domain kinase 2 (Homo sapiens) (UniProt P53671); experiment: Inhibition of LIMK2 (unknown origin) assessed as residual activity at 1000 nM by KINOMEscan analysis relative to control
[9] = target: Misshapen-like kinase 1 (Homo sapiens) (UniProt Q8N4C8); experiment: Inhibition of MINK (unknown origin) assessed as residual activity at 1000 nM by KINOMEscan analysis relative to control
Homo sapiens = species: Homo sapiens; experiment: Inhibition of PIP5K1C (unknown origin) assessed as residual activity at 1000 nM by KINOMEscan analysis relative to control
[10] = target: T3, Serine/threonine-protein kinase tousled-like 1 (Homo sapiens) (UniProt Q9UKI8); experiment: Inhibition of TLK1 (unknown origin) assessed as residual activity at 1000 nM by KINOMEscan analysis relative to control
T3 sequence (whole entry): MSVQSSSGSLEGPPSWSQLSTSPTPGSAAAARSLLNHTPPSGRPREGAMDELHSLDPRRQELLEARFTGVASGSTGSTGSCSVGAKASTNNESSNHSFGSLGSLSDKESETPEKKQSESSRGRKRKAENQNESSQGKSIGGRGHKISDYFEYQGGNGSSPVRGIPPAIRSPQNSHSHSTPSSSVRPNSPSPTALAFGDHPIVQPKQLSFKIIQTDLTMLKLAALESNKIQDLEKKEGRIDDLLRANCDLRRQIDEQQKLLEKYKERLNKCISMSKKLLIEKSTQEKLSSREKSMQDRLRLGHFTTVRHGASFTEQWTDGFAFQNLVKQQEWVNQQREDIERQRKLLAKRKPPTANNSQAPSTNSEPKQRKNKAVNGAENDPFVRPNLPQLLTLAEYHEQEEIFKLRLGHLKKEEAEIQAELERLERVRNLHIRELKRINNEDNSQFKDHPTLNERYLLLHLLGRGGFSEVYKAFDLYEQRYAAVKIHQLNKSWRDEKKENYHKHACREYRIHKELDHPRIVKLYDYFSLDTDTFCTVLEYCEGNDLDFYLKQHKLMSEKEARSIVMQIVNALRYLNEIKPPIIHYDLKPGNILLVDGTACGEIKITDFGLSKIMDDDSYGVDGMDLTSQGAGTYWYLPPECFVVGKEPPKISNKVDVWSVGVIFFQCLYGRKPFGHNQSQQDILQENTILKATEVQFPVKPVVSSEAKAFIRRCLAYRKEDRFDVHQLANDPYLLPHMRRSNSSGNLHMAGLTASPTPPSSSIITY

Sequence of Fibroblast growth factor receptor 4 (Homo sapiens) (P22455 22-802 limits assumed): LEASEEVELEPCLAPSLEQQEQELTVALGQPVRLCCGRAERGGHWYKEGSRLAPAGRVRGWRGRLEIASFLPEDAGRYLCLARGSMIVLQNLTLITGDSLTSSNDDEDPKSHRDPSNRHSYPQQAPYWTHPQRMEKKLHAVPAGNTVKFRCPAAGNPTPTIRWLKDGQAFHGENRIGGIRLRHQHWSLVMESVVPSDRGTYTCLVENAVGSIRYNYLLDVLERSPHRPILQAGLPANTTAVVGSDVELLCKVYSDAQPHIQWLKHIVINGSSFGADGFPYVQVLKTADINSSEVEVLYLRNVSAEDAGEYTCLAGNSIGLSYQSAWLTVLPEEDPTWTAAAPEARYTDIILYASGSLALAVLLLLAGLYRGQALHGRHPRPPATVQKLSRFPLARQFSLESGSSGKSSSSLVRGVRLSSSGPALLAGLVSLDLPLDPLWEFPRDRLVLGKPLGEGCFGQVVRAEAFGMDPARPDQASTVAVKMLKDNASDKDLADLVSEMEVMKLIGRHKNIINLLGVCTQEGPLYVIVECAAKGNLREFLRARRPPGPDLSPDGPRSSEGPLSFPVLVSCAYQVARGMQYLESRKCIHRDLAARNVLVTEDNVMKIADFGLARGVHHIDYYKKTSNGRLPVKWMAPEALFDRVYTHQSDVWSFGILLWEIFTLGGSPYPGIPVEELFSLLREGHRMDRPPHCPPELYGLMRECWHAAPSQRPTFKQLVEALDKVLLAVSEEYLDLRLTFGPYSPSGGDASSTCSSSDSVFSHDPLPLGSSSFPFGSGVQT
Sequence of LIM domain kinase 2 (Homo sapiens) (P53671 whole entry, looked up, the tested form may be a part): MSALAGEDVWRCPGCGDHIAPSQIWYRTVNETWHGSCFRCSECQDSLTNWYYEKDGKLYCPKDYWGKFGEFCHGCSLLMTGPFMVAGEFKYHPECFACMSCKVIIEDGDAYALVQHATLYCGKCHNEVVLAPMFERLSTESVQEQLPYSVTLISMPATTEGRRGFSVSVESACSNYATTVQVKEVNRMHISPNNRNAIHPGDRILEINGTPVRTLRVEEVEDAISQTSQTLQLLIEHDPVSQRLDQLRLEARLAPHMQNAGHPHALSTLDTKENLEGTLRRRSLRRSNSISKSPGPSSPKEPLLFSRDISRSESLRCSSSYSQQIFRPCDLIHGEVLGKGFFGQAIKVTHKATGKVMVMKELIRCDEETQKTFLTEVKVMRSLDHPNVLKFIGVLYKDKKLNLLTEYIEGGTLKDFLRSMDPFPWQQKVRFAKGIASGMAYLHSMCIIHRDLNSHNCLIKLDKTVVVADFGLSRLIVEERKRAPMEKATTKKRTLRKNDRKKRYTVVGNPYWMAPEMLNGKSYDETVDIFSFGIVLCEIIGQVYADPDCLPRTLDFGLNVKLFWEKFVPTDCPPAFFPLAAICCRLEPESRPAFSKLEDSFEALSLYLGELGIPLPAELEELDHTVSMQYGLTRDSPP
Sequence of Macrophage colony-stimulating factor 1 receptor (Homo sapiens) (P07333 whole entry): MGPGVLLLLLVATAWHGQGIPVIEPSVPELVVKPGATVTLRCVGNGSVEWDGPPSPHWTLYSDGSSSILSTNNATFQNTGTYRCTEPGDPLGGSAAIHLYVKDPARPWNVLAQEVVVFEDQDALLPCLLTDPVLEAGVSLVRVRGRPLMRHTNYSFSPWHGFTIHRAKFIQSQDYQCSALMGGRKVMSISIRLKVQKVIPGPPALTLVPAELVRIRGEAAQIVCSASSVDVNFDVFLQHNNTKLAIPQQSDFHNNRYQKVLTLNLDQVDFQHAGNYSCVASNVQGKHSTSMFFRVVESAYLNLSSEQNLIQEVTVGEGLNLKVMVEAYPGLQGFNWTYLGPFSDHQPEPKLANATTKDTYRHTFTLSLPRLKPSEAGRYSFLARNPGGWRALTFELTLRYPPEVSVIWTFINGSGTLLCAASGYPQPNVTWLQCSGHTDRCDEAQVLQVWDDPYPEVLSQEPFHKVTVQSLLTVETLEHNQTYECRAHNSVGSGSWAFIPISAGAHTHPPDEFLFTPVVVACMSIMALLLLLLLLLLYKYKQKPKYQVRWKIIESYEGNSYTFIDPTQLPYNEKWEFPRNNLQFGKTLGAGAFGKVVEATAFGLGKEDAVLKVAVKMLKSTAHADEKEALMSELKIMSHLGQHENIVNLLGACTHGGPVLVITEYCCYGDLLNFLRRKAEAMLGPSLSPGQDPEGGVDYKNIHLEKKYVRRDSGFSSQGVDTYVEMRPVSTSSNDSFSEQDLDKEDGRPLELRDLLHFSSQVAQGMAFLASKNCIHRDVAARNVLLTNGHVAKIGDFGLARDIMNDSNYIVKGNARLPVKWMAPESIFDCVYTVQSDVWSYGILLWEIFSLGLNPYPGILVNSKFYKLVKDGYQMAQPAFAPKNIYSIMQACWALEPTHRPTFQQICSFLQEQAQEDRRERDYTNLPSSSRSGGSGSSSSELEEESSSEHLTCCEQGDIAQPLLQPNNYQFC
Sequence of Misshapen-like kinase 1 (Homo sapiens) (Q8N4C8 whole entry, looked up): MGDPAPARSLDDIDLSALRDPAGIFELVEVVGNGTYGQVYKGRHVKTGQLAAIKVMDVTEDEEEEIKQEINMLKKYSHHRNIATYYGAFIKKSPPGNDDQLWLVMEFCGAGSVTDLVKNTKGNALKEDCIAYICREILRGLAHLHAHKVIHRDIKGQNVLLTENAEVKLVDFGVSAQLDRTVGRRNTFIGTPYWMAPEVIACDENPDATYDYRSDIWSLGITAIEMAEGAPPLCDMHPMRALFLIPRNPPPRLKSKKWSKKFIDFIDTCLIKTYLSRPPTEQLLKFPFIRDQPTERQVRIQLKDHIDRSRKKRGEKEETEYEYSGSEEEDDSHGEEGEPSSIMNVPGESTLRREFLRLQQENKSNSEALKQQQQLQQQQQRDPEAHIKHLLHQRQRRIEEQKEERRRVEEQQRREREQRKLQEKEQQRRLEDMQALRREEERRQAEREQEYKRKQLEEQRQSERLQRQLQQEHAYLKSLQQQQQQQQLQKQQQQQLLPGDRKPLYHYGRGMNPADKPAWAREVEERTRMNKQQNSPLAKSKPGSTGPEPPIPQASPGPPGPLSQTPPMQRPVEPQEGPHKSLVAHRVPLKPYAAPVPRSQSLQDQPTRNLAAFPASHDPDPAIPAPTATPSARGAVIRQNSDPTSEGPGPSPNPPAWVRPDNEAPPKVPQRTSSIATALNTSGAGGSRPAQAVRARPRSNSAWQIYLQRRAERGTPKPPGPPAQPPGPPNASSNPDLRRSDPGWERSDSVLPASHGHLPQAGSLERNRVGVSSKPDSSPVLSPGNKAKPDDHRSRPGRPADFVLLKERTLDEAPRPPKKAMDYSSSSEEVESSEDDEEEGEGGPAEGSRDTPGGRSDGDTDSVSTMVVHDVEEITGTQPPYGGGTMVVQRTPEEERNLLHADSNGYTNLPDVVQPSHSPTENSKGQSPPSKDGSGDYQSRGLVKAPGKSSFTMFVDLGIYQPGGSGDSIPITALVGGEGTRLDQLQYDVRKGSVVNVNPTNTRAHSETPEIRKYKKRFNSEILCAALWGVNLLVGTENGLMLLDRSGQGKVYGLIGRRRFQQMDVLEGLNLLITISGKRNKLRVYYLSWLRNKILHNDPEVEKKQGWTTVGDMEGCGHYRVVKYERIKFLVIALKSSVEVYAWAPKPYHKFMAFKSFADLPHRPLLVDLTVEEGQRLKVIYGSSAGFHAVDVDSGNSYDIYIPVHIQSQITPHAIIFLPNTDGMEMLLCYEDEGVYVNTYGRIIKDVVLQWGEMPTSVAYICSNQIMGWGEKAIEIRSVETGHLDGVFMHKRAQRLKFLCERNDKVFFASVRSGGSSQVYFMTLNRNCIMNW
Sequence of Mitogen-activated protein kinase 6 (Homo sapiens) (Q16659 whole entry): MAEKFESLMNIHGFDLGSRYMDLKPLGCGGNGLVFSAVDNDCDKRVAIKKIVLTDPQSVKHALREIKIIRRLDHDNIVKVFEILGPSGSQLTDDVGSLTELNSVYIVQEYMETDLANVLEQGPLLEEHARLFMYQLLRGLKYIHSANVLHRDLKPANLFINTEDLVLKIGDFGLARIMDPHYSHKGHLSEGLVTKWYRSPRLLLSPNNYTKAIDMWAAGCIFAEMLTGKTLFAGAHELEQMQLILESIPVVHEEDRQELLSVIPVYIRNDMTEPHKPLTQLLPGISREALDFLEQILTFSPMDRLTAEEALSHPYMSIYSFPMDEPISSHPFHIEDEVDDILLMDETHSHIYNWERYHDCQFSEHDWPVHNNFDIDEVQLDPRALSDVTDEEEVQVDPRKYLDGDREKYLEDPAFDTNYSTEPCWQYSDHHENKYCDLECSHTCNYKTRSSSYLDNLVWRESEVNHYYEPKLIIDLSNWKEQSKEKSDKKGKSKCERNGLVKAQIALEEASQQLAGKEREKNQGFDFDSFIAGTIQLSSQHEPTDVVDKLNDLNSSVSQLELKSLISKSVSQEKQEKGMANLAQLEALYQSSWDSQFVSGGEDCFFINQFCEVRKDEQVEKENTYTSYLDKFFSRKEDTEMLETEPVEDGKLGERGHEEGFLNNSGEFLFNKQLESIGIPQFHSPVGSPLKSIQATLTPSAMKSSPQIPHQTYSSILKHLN
Sequence of Calcium/calmodulin-dependent protein kinase kinase 1 (Homo sapiens) (Q8N5S9 whole entry, looked up): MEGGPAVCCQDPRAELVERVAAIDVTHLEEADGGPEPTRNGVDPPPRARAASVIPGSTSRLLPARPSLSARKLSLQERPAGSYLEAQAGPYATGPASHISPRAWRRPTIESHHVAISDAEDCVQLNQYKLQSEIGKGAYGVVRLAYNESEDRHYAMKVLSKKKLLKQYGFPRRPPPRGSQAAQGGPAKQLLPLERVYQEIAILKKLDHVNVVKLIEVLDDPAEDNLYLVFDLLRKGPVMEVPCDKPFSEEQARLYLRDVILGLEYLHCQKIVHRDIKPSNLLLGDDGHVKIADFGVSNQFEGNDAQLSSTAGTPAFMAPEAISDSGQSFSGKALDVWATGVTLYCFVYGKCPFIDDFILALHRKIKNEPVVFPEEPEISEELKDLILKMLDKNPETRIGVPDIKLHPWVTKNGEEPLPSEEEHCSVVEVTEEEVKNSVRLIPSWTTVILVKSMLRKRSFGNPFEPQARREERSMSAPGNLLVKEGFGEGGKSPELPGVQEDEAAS

Structure (SMILES)	Activity [1] [%]	Activity [2] [%]	Activity [3] [%]	Activity [4] [%]	Activity [5] [%]	Activity [6] [%]	Activity [7] [%]	Activity [8] [%]	Activity [9] [%]	Activity (Homo sapiens) [%]	Activity [10] [%]
COc1cc2nc(C)nc(N[C@H](C)c3cccc(-c4cn[nH]c4)c3)c2cc1OC	95	73	97	98	73	100	97	100	100	75	78
COc1cc2ncnc(N[C@H](C)c3cccc4ccccc34)c2cc1OC	92	97	93	100	100	94	98	92	74	82	100
